Reference: ChEMBL document CHEMBL2007661, “Compounds: GSK PKIS; Assays: UNC Frye lab” (2012)
Values joined by “and” are separate entries in the source; they are usually repeats but may differ in a detail not shown here. Equal entries are not always repeated.

Assays:
[1] = biological target: T1, Inhibitor of nuclear factor kappa-B kinase subunit beta (Homo sapiens) (UniProt O14920); conditions: at 1 µM
T1 sequence (whole entry): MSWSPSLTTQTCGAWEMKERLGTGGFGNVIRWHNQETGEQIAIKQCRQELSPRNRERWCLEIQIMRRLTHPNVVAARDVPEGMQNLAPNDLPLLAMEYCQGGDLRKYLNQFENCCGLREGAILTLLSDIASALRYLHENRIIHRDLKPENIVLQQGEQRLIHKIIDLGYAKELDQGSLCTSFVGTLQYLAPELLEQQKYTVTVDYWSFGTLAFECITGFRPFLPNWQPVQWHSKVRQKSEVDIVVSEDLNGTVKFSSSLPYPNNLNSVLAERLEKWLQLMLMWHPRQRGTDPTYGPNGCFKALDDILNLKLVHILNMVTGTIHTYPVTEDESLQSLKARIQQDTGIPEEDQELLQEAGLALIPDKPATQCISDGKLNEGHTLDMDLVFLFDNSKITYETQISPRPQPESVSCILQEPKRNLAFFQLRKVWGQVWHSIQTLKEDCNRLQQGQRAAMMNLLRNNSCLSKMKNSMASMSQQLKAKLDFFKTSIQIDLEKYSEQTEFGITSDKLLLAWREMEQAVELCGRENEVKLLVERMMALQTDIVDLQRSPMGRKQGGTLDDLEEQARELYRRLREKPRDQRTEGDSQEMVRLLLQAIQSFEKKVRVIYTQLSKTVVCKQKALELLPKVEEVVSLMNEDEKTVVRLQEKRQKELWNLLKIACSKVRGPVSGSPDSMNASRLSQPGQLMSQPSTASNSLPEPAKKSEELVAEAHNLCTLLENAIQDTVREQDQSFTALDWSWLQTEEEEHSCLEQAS

[2] = biological target: T2, Inhibitor of nuclear factor kappa-B kinase subunit alpha (Homo sapiens) (UniProt O15111); conditions: at 1 µM
T2 sequence (whole entry): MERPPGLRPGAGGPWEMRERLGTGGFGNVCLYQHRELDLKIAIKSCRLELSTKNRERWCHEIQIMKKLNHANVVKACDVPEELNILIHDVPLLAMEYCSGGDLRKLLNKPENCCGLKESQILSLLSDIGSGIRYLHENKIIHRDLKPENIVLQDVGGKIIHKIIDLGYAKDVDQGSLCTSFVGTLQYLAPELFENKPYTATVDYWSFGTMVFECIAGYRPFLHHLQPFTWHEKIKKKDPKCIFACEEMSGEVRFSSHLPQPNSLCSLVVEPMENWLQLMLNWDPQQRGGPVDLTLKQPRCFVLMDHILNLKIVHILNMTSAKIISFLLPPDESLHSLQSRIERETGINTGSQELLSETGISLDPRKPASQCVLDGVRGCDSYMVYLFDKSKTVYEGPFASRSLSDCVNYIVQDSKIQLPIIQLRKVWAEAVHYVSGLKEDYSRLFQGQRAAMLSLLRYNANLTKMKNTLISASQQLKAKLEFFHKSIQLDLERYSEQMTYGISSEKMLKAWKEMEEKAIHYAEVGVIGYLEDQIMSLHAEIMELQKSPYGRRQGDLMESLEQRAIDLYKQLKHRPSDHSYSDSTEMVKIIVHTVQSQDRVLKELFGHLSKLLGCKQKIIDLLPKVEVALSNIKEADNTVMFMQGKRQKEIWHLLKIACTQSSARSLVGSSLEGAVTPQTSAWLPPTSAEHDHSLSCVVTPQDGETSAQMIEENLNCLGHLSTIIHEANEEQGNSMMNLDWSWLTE

| Structure (SMILES) | inhibition [1] | inhibition [2] |
| --- | --- | --- |
| CN1CCC(C(=O)Nc2n[nH]c3nc(-c4ccc(O)cc4)c(Br)cc23)CC1 | -1% [middle of 4 runs] | 1% and 3% and 4% |
| CCn1c(-c2nonc2N)nc2c(C#CC(C)(C)O)ncc(OC[C@@H]3CCCN3)c21 | -2% and -1% | 18% and 19% |
| CCn1c(-c2nonc2N)nc2cncc(C(=O)N3CC[C@H](N)C3)c21 | -1% and -5% | 35% and 28% |
| CS(=O)(=O)CCN(CC#N)Cc1ccc(-c2ccc3ncnc(Nc4ccc(OCc5cccc(F)c5)c(Cl)c4)c3c2)o1 | -2% and -1% | 1% |
| CN(C)CCNC(=O)Nc1ccc(N(C)c2ccnc(Nc3ccc(CS(C)(=O)=O)cc3)n2)cc1 | -1% and -5% | 1% |
| COc1cc(N2CCN(C(C)C)CC2)ccc1Nc1nc(Nc2ccc(F)cc2C(=O)NC[C@@H](O)CO)c2cc[nH]c2n1 | -1% and -2% | 2% and 3% |
| CN1CCN(Cc2ccc(-c3cc4ncnc(Nc5ccc(OCc6cccc(F)c6)c(Cl)c5)c4s3)o2)CC1 | -3% | 0% and -4% |
| CCn1c(-c2nonc2N)nc2ccccc21 | -5% and -4% | 24% |
| CCn1c(-c2nonc2N)nc2c(C#CC(C)(C)O)ncc(OC3CCNCC3)c21 | -4% | 9% and 5% |

Continued, values first:

| inhibition [1] | inhibition [2] | Structure (SMILES) |
| --- | --- | --- |
| -6% and -8% | 5% | Cc1ccc(O)cc1Nc1ccnc2ccc(S(C)(=O)=O)cc12 |
| -4% and -3% | 1% and 3% | NC(=O)c1sc(-n2cnc3cc(C(F)(F)F)ccc32)cc1OCc1ccccc1Br |
| 1% and 0% | 2% | Oc1cccc(-c2nc(-c3ccccc3)[nH]c2-c2ccncc2)c1 |
| -2% and -6% | 9% and -2% | O=C(Nc1n[nH]c2cc(-c3ccccc3)ccc12)C1CC1 |
| -5% and -3% | 1% | O=C1Nc2ccccc2/C1=C/Nc1ccc2[nH]c(=O)[nH]c2c1 |
| -6% and -7% | 2% and 0% | Nc1nccc(C#Cc2cncnc2Nc2ccc(OCc3cccc(F)c3)c(Cl)c2)n1 |
| -2% and -4% | 0% and -1% | Cc1ccc(-c2cc3c(NC(=O)C4CC4)ncnc3o2)cc1 |
| -4% and -5% | 2% | OCCCNc1nccc(-c2c(-c3ccc(F)cc3)nn3cc(C(F)(F)F)ccc23)n1 |
| -5% and -2% | 1% and 2% | c1ccc(Oc2ccc(Nc3ncc(-c4ccccc4)o3)cc2)cc1 |
| -4% and -2% | 2% | CC(=O)Nc1cccc(C#Cc2cncnc2Nc2ccc(OCc3cccc(F)c3)c(Cl)c2)n1 |
| -8% and -2% | 2% and 12% | O=C(Nc1n[nH]c2cc(-c3ccc(F)cc3)ccc12)C1CC1 |
| -3% and -6% | 2% | COc1cccc(-c2c[nH]c3c(N/N=C/c4ccncc4)ncnc23)c1 |
| 2% | -3% and -4% | NCc1ccc(-c2nc(-c3ccc(Cl)c(O)c3)c(-c3ccncc3)[nH]2)cc1 |
| -1% and -3% | -4% and -2% | Cc1cc(-c2ccco2)cc(C)c1/C=C/c1cncc(-c2nn[nH]n2)c1 |
